# Biological target: T1, LRRK2 (Homo sapiens, UniProt Q5S007, G2019S)
# T1 construct: purchased Invitrogen PV4882 (lot 567054A)
# Experiment: In Vitro LRRK2 Assay (LabChip 3000, fluorescently-labeled peptide substrate, ATP)
# Assay type: biochemical
# Details: read-out: LRRK2 Ki (KI), Table 7
# Method: This assay was used to determine a compound's potency in inhibiting activity of LRRK2 by determining, Kiapp, IC50, or percent inhibition values. In a polypropylene plate, LRRK2, fluorescently-labeled peptide substrate, ATP and test compound were incubated together. Using a LabChip 3000 (Caliper Life Sciences), after the reaction the substrate was separated by capillary electrophoresis into two populations: phosphorylated and unphosphorylated. The relative amounts of each were quantitated by fluorescence intensity. LRRK2 Ki was determined according to the equation: Y=V0*(1−(x+Ki*(1+S/Km)+Et)/(2*Et)−(((x+Ki*(1+S/Km)+Et)^2−(4*Et*x))^0.5)/(2*Et))). Ki values in Table 4 and elsewhere herein are shown in μM.
# Assay conditions and materials used were as follows:
# Compound Plate Preparation:
# For serial dilutions, 34.6 μl DMSO was added to columns 3-24.
# Total and Blank Preparation:
# In Complete Reaction Buffer, substrate was diluted to 4 μM. Equal volumes of Complete Reaction Buffer and 4 μM substrate were combined to obtain the blank. Equal volumes of Complete Reaction Buffer and 4 μM substrate were combined and to the combined solution was added 2× final LRRK2 concentration.
# To a 50 μl polypropylene plate, 5 μl/well buffer/substrate was added by hand to Blank wells. A Biomek FX was used to start the kinase reaction (“PLK SAR 23 ATP”). The following were added to the appropriate wells:
# 5 μl/well compound/ATP in Assay Plate;
# 5 μl/well kinase/substrate in Assay Plate;
# The plate was incubated for 2 hours in the dark. Biomek FX was used to stop the kinase reaction (“PLK Stop”), and 10 μl/well Stop solution was added to the Assay Plate. Results were read on the LabChip 3000.
# The LabChip 3000 was run using the job “LRRK2 IC50” with the following job settings: […]
# T1 sequence (Q5S007 whole entry G2019S): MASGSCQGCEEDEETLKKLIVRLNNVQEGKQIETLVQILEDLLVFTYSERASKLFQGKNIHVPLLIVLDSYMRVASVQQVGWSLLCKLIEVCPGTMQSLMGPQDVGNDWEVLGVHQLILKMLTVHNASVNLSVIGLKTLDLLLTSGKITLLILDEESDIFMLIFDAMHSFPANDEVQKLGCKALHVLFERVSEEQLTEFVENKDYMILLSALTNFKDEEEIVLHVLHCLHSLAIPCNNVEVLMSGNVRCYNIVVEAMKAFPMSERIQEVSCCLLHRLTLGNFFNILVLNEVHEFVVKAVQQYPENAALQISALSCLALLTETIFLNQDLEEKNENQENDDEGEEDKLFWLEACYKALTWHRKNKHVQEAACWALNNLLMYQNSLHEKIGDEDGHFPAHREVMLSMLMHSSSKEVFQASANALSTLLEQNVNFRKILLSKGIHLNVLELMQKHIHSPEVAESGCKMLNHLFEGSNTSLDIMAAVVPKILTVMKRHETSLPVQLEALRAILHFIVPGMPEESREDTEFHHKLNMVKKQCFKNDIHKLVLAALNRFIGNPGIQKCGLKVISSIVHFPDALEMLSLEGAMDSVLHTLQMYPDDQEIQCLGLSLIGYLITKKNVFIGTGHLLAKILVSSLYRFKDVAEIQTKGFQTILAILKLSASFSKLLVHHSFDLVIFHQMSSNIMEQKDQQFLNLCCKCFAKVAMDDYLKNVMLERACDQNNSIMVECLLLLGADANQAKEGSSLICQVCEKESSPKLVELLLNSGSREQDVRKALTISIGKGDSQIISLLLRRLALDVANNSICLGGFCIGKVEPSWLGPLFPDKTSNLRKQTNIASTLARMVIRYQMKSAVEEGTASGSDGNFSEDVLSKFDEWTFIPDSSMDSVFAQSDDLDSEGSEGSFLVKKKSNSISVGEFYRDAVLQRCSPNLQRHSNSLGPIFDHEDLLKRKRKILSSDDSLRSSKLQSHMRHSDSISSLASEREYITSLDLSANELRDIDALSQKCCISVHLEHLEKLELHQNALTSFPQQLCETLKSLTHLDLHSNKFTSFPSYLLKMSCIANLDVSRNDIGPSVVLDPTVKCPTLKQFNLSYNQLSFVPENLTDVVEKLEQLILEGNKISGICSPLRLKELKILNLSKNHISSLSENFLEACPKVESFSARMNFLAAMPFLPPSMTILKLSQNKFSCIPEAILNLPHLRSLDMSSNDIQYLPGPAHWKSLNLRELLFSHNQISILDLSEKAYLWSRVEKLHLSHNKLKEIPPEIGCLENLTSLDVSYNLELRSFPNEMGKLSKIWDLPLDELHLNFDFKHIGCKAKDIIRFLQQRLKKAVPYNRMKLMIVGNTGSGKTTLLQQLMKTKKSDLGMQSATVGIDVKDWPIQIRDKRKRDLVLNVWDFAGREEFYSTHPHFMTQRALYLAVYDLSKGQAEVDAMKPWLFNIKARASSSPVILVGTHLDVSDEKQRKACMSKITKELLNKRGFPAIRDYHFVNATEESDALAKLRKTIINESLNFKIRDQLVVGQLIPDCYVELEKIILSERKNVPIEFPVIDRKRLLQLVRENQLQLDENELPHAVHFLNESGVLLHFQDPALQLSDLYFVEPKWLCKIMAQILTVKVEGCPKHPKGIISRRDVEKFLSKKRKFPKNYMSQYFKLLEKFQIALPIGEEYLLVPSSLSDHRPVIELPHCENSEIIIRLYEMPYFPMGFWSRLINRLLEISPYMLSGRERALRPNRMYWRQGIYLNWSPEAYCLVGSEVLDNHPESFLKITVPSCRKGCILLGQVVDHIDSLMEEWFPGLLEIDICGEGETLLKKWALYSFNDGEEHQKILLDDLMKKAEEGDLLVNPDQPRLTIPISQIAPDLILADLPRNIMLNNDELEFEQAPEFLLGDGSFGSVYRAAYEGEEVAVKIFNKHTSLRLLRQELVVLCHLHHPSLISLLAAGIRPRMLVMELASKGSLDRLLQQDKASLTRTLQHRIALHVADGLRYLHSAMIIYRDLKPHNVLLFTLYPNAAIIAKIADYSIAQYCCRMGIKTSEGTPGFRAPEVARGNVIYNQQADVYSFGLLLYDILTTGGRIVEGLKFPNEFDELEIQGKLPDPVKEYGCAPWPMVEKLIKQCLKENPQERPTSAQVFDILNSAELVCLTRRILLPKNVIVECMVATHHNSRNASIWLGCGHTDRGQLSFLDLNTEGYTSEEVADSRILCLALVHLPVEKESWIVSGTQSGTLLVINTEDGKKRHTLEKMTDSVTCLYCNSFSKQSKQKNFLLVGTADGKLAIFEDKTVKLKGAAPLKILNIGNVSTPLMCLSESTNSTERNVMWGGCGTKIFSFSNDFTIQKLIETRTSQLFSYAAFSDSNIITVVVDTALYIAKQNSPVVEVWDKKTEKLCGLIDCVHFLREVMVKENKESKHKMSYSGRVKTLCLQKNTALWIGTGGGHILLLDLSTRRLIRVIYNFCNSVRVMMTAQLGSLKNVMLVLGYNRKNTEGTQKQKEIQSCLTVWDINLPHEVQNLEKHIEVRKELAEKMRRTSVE
row,Ki [nM],Structure (SMILES)
1,16,"COc1nc(Nc2cnn(C(C)(C)C#N)c2C)ncc1Cl [Example 72, 2-(4-(5-chloro-4-methoxy-pyrimidin-2-ylamino)-5-methyl-1H-pyrazol-1-yl)-2-methylpropane-nitrile]"
2,14,"COc1nc(Nc2cn(C(C)(C)C#N)nc2C)ncc1Cl [Example 73, 2-(4-(5-chloro-4-methoxy-pyrimidin-2-ylamino)-3-methyl-1H-pyrazol-1-yl)-2-methylpropane-nitrile]"
3,2.2,"COc1nc(Nc2cn(-c3ccc(S(C)(=O)=O)cc3)nc2C)ncc1Cl [Example 75, (5-Chloro-4-methoxy-pyrimidin-2-yl)-[1-(4-methanesulfonyl-phenyl)-3-methyl-1H-pyrazol-4-yl]-amine]"
4,2.3,"COc1nc(Nc2cn(-c3ccccc3)nc2C)ncc1Cl [Example 76, (5-Chloro-4-methoxy-pyrimidin-2-yl)-(3-methyl-1-phenyl-1H-pyrazol-4-yl)-amine]"
5,1.6,"COc1nc(Nc2cn(-c3ccccc3)nc2C)ncc1C(F)(F)F [Example 77, (4-Methoxy-5-trifluoromethyl-pyrimidin-2-yl)-(3-methyl-1-phenyl-1H-pyrazol-4-yl)-amine]"
6,38.1,"COc1nc(Nc2cnn(-c3ccccc3)c2C)ncc1C(F)(F)F [Example 78, (4-Methoxy-5-trifluoromethyl-pyrimidin-2-yl)-(5-methyl-1-phenyl-1H-pyrazol-4-yl)-amine]"
7,66.3,"COc1nc(Nc2cnn(C3CCOCC3)c2C)ncc1Cl [Example 80, (5-Chloro-4-methoxy-pyrimidin-2-yl)-[5-methyl-1-(tetrahydro-pyran-4-yl)-1H-pyrazol-4-yl]-amine]"
8,2.2,"COc1nc(Nc2cn(-c3ccc(C(=O)N(C)C)cc3)nc2C)ncc1Cl [Example 81, 4-[4-(5-Chloro-4-methoxy-pyrimidin-2-ylamino)-3-methyl-pyrazol-1-yl]-N,N-dimethyl-benzamide]"
9,630,"COc1nc(Nc2cnn(-c3ccc(C(=O)N(C)C)cc3)c2C)ncc1Cl [Example 82, 4-[4-(5-Chloro-4-methoxy-pyrimidin-2-ylamino)-5-methyl-pyrazol-1-yl]-N,N-dimethyl-benzamide]"
10,9,"COc1nc(Nc2cnn(-c3ccc(C#N)cc3)c2C)ncc1Cl [Example 83, 4-[4-(5-Chloro-4-methoxy-pyrimidin-2-ylamino)-5-methyl-pyrazol-1-yl]-benzonitrile]"
11,74.2,"CNc1nc(Nc2cnn(C)c2OC)ncc1C(F)(F)F [Example 84, N^2-(5-Methoxy-1-methyl-1H-pyrazol-4-yl)-N^4-methyl-5-trifluoromethyl-pyrimidine-2,4-diamine]"
12,6.6,"COc1nc(Nc2cnn(C3CCOCC3)c2Cl)ncc1Cl [Example 85, (5-Chloro-4-methoxy-pyrimidin-2-yl)-[5-chloro-1-(tetrahydro-pyran-4-yl)-1H-pyrazol-4-yl]-amine]"
13,183,"COc1nc(Nc2cn(C3CCN(CCF)CC3)nc2C)ncc1Cl [Example 86, (5-Chloro-4-methoxy-pyrimidin-2-yl)-{1-[1-(2-fluoro-ethyl)-piperidin-4-yl]-3-methyl-1H-pyrazol-4-yl}-amine]"
14,0.8,"CCNc1nc(Nc2cnn(C3CCN(CC4OCCO4)CC3)c2C)ncc1C(F)(F)F [Example 87, N^2-[1-(1-[1,3]Dioxolan-2-ylmethyl-piperidin-4-yl)-5-methyl-1H-pyrazol-4-yl]-N^4-ethyl-5-trifluoromethyl-pyrimidine-2,4-diamine]"
15,9.4,"CCNc1nc(Nc2cn(C3CCN(CC4OCCO4)CC3)nc2C)ncc1C(F)(F)F [Example 88, N^2-[1-(1-[1,3]Dioxolan-2-ylmethyl-piperidin-4-yl)-3-methyl-1H-pyrazol-4-yl]-N^4-ethyl-5-trifluoromethyl-pyrimidine-2,4-diamine]"

# Same assay, conditions: read-out: LRRK2 Ki given in the example
row,Ki [nM],Structure (SMILES)
1,17,"CNc1nc(Nc2cnn(C)c2C)ncc1Br [Example 89, 5-Bromo-N^2-(1,5-dimethyl-1H-pyrazol-4-yl)-N^4-methylpyrimidine-2,4-diamine]"
